Tests used:
[1] = target: T1, human lactate dehydrogenase 5 (Homo sapiens, UniProt P00338); assay: LDHA biochemical (enzymatic) assay; conditions: MIPE library screen
T1 construct: purchased Meridian Life Science, Inc. A38558H
Procedure: The LDHA biochemical assay was performed as previously described. Briefly, 3 µL of human lactate dehydrogenase 5 (2 nM final) (no. A38558H, Meridian Life Science, Inc.) in LDH assay buffer (200 mM Tris HCl, pH 7.4, 100 µM EDTA, and 0.01% Tween-20) was added to a black solid bottom 1536-well assay plate (Greiner Bio-One). Following compound pin transfer (23 nL), 1 µL of substrate solution containing NADH (0.06 mM final) and sodium pyruvate (0.2 mM final) (Sigma-Aldrich) in LDH assay buffer was dispensed to initiate the reaction. After 5 min incubation at room temperature, 1 µL of detection reagent [C. kluyveri diaphorase (0.133 mg/mL final, Sigma-Aldrich) and resazurin sodium salt (37 µM final, Sigma-Aldrich) in LDH assay buffer] was added to each well. Plates were immediately transferred to a ViewLux reader and any resulting resorufin fluorescence was measured (ex 540 nm, em 590 nm) at 0 and 10 min. Fluorescence was normalized using enzyme-free and DMSO-treated control wells on each plate.

LDHA-86b = target: T2, LDHA-86b (Homo sapiens, UniProt P00338); assay: SplitLuc CETSA of LDHA-86b (HEK293T); type: cell-based; conditions: 63 °C for 3.5 min, 384-well PCR plates
T2 construct: Size (a.a., untagged); expressed in transfected cells; host or cells: HEK293T
Procedure: Cells were transfected in T75 flasks using a reverse transfection procedure, where 9 mL of complexes (45 µL Lipofectamine 2000 and 22.5 µg DNA) was combined with 10 mL of HEK293T cell suspension (1 × 10^6 cells/mL, 10 million cells total). After 24 h, cells were harvested by trypsinization, resuspended at 1 × 10^6 cells/ml as described above and dispensed (15 µL cells/well) into 384-well PCR plates (Roche) using a Multidrop Combi (ThermoFisher). Compounds (63 nL) or DMSO vehicle control (63 nL) were subsequently pinned using a pin tool (GNF) and incubated for 1 h at 37 °C. Plates were sealed and heated at the indicated temperature for 3.5 min and cooled to 25 °C using AB qPCR machine (Roche) using ramp speed of 1.5 °C/sec for heating phase and max ramp rate for the cooling phase. […] Samples were analyzed for luminescence intensity using a ViewLux reader.
Cells were transfected and harvested as above (384-well protocol). Cells were dispensed (5 µL cell/well) into 1,536-well white plates (Aurora, cyclic olefin polymer, cat# EWB041000A) using a Multidrop Combi. Compounds (23 nL) were subsequently pinned using a pin tool (Wako Automation) and incubated for 1 h at 37 °C. Plates were heated at the indicated temperature and time using a heating block (see below) and cooled to 25 °C. […] Plates were centrifuged and analyzed for luminescence intensity using a ViewLux reader. […]

COc1ncc(-c2ccc3c(Nc4cc(Oc5cc(F)cc(F)c5)cc(C(=O)O)c4)c(S(=O)(=O)NC4CC4)cnc3c2)c(OC)n1 [GSK2837808A]
activity in biochemical screen for LDHA enzymatic activity [1]: common hit | thermal stabilization of LDHA-86b, re-test of screen hits (LDHA-86b): confirmed

— article PMC6013488, “A widely-applicable high-throughput cellular thermal shift assay (CETSA) using split Nano Luciferase” (Scientific Reports, 2018)
